Measured values reported in US11447482B1, “Imidazopyridine and oxazolopyridine derivatives and analogs thereof, methods of preparation thereof, methods of HIF-2A pathway inhibition, and induction of ferroptosis” (KUDA Therapeutics, Inc., priority 2019, dated 2022).
Several values for one entry are separate records, joined by “and”; a condition that tells them apart may be missing. Equal entries are not always repeated. Where two headings read alike, the source gives them in different places.

Assays:
recombinant ISCA2 = molecular target: T1, recombinant ISCA2 (Homo sapiens, UniProt Q86U28); experiment: Thermal shift assay (SYPRO Orange); format: binding
T1 construct: His6 (N); made in house
T1 sequence (Q86U28 9-154): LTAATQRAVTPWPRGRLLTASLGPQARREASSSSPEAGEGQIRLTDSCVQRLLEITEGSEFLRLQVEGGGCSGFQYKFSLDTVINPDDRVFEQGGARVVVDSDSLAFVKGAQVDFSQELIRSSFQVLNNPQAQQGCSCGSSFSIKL
Protocol: Thermal shift assays were performed by monitoring the change in protein melting temperature (Tm) in the absence or presence of test compounds, using the hydrophobic protein binding dye, SYPRO Orange (S6650, Thermo Fisher Scientific, Waltham, Mass.), measured using the LightCycler 480 (Roche Life Sciences, Indianapolis, Ind.) according to the manufacturer's protocol. Recombinant ISCA2 was produced by expressing amino acid residues 9-154 of ISCA2 (ISCA2 lacking its mitochondrial localization sequence) in the pET28 vector containing an N-terminal His6 tag in Rosetta (DE3) competent cells (Novagen, Millipore Sigma). ISCA2 production was induced by treating ISCA2 transformed log phase cells with 0.25 mM IPTG for 4 hours at 18° C. ISCA2 was purified using Ni^2+ affinity purification according to standard protocols and eluted in 50 mM Tris-Cl pH7.4, 150 mM NaCl, 5 mM DTT. Thermal shift assays were performed in 384-well plates using 1 μl of a 10× concentration of SYPRO Orange, 8 μl of ISCA2 (4 μg protein) and 1 μl of 1-2 mM stock of test compound per well. The LightCycler was used according to the following setup: LightCycler 480 Instrument Temperature Setup: First target of 20° C., with a Hold of 15 seconds; second target of 95° C., with Acquisition Mode of Continuous, and 10 acquisitions per degree C.; and third target of 20° C., with a Hold of 15 seconds. Tms were determined using Roche Protein Melting Analysis Software. Representative data are shown in FIGS. 7 and 8 using KD001 at 200 μM final concentration and KD025 at 100 μM final concentration respectively. Part A in these figures show the changes in fluorescence with increasing temperature in control (grey traces), or treated (black traces) wells. Part B show the ratio of changes in fluorescence (dF) with changes in temperature (dT), given by dF/dT, the peak of which indicates the melting temperature of ISCA2 under these assay conditions. In these examples, for KD001 in FIG. 7, the average Tm readings for control wells was 53.21±0.36° C. (replicate readings were 53.92, 52.83, 52.90), whereas Tm readings for KD001-treated wells were 55.63±0.26° C. (replicate readings were 55.10, 55.92, 55.96). Thus, treatment with KD001 results in a change in melting temperature of ISCA2 (dTm) of 2.41±0.44° C., with a Student's t-test p-value of 0.005. For KD025 in FIG. 8, the average Tm readings for control wells was 55.02±0.2° C. (replicate readings were 55.42, 54.83, 54.81), whereas Tm readings for KD025-treated wells were 56.3±0.02° C. (replicate readings were 56.33, 56.3, 56.27). Thus, treatment with KD025 results in a change in melting temperature of ISCA2 (dTm) of […], with a Student's t-test p-value of 0.003.

HIF-2α = experiment: Western blot of treated 786-0 cells: HIF-2α; format: cell-based, human; details: 786-0 CCRCC cells, 24 hours
Protocol: (§1) Western blots were performed to determine the effects of the compounds on levels of HIF-2α and other relevant proteins. 786-0 (pVHL deficient clear cell kidney cancer cells) were purchased from ATCC were plated at 1×10E5 cells/well in 2 ml DMEM with 10% FBS/well in 6-well tissue culture plates. Cells were allowed to adhere overnight in a humidified incubator at 37° C. with 5% CO2, after which the appropriate concentrations of compounds in DMSO were added. DMSO concentrations were kept constant in all wells. After 24 hour's exposure to the compounds, cells were lysed and subjected to western blotting according to standard protocols (Polek, Talpaz et al. 2003). Antibodies for HIF-2α and Glyceraldehyde 3-Phosphate Dehydrogenase (GAPDH) were purchased from Cell Signaling Technology (Danvers, Mass.), whereas antibodies to iron responsive element binding protein 2 (IRP2) and Glutathione Peroxidase 4 (GPX4) were from Santa Cruz Biotechnology (Dallas, Tex.) and R&D Systems, Inc (Minneapolis, Minn.). Representative data in FIG. 3 show a dose-dependent effect of compounds in decreasing HIF-2α. Compounds also impact cellular iron sensing given by increased IRP2, which taken together indicate that cells sense decreased amounts of available iron. Representative data shown in FIG. 5 Part C show a dose dependent effect of the compounds on GPX4, which may indicate decreased resistance to ferroptosis.

IRP2 = experiment: Western blot of treated 786-0 cells: IRP2; format: cell-based, human; details: 786-0 CCRCC cells, 24 hours
Protocol: as §1

[1] = system: HIF-2α transcriptional activity; experiment: Hypoxia-responsive element-driven luciferase (HRE-Luc) assay; format: cell-based, human; details: 786-0 CCRCC cells stably expressing HRE-Luc, 24 hours treatment
Protocol: (§2) Screens for inhibitory activity of compounds described herein were performed using 786-0 CCRCC cells that stably express HRE-Luc: 5 copies of the hypoxia-responsive element (HRE) fused to the pGL3 luciferase reporter (Promega Corp, Madison Wis.). 786-0 cells are pVHL deficient and thus constitutively express HIF-2α independently of cellular oxygen tension (Maxwell, Wiesener et al. 1999). Since 786-0 cells lack HIF-1α, HRE-driven luciferase activity is primarily HIF-2α driven, and has been previously validated (Koh, Lemos et al. 2011). Cells were maintained at log phase growth in Dulbecco's […] (DMEM) with 10% FBS in a humidified incubator at 37° C. with 5% CO2. For screening assays, cells were seeded at a density of 4,000 cells in 50 μl of complete media/well in quadruplicate wells/point in a 96-well plate. 24 hours later, 50 μl of a 2× concentration of test compound was added to each well. Compounds were diluted from a 5-10 mM stock in DMSO and final concentrations of DMSO in each well in controls and treated wells were kept constant at ≤0.6% DMSO. After 24 hours' treatment, luciferase activity was measured using the Steady-Glo Luciferase assay system (Promega Corp) according to the manufacturer's protocol. Cell viability was measured in quadruplicate parallel wells using resazurin as recommended by the manufacturer (R&D systems, Minneapolis, Minn.). Data for luciferase and resazurin were normalized to DMSO treated controls (defining 100%) and wells containing assay reagent but no cells (defining 0%), and graphed using the log inhibitor versus normalized response option in Prism7 Graphpad software. Representative data determined using Steady-Glo luciferase and resazurin are shown in FIGS. 1A and 1B respectively, with error bars showing standard error of the mean (SEM).

786-0 CCRCC cells [2] = experiment: Resazurin cell viability assay, with or without deferoxamine; format: cell-based, human; details: 24 hours; for ratio of resazurin IC50 to HRE-Luc IC50: 786-0 HRE-Luc cells, data of FIG. 1; for IC50: 786-0 CCRCC cells, resazurin
Protocol: as §2
In view of the increased cellular iron concentrations induced by the compounds described herein, the involvement of iron in mediating cell death was determined. Cell viability assays were performed as described in Example 2 using resazurin as a cell viability readout, and performed in the absence or presence of 100 μM of the iron chelator, deferoxamine (D9533, MilliporeSigma, St Louis, Mo.). […] The data support an iron-dependent mechanism of cell death, or feroptosis.

[3] = system: CMV-driven luciferase in 786-0 cells; experiment: CMV-Luciferase counter-screen (constitutive luciferase); format: cell-based, human; details: 786-0 CMV versus 786-0 HRE cells, data of FIG. 2
Protocol: Since it is possible that non-specific inhibitors of luciferase activity and/or translation may produce false-positives in our HRE-luciferase screens, counter-screens were performed using 786-0 cells that stably express a constitutively expressed luciferase construct. 786-0 cells stably expressing CMV-driven luciferase were generated using the pGL4.50 (luc2/CMV/Hygro) vector (Promega Corp) according to the manufacturers' protocol. 786-0 HRE and 786-0 CMV were seeded in 96-well plates and were screened according to the HRE-Luc assay protocol described in Example 2. Luciferase activity following compound treatment was determined using Steady Glo luciferase. Representative data are shown in FIG. 2, wherein A, B and C refer to treatments with KD02, KD007 and KD021 respectively. Filled circles indicate results from 786-0 HRE cells, whereas empty squares indicate results from 786-0 CMV cells.

786-0 CCRCC cells [4] = experiment: ICP-MS of cellular iron, zinc and copper; format: cell-based, human; details: 786-0 cells, 24 hours, 1.5 μM KD002 or KD021, 2.5 μM KD025HCl, versus DMSO
Protocol: These studies were performed to determine the content of iron and other transition metals in cells after exposure the compounds described herein. 786-0 cells were seeded at 1.5 million cells/flask in T75 cm^2 flasks in DMEM+10% FBS, and allowed to adhere overnight. Cells were then treated with indicated concentrations of compounds in DMSO or DMSO alone (vehicle) for a further 24 hours, after which cells were detached by trypsinization, counted, washed twice in PBS and pelleted. Experiments were performed using three replicate T75 cm^2 flasks per condition. A 5:1 mixture of nitric acid (OPTIMA Grade, 70%, Fisher Scientific) and ultrapure hydrogen peroxide (ULTREX II, 30%, Fisher Scientific) was added to cell pellets. This mixture was allowed to digest overnight, heated until dry, and resuspended in 2% nitric acid for analysis using an Agilent 7900 ICP-MS (Agilent Technologies, Santa Clara, Calif.). Calibration standard solutions for determination of Fe were prepared from Agilent multi-element calibration standard-2A. An Agilent Environmental Calibration Standard was used as an independent control. PBS-only control digestions were used to measure background. Metal readings were normalized to cell number. Data obtained from these studies for three replicate readings (with SEM) are shown in FIG. 4, which show an increase in cellular iron (Fe) content after treatment with indicated compounds.

| Structure (SMILES) | HIF-2α protein relative to GAPDH (western blot) (HIF-2α) | IRP2 protein relative to GAPDH (western blot) (IRP2) | IC50 ([1]; Homo sapiens) | ratio of resazurin IC50 to HRE-Luc IC50 (786-0 CCRCC cells [2]) | ratio of CMV-Luc IC50 to HRE-Luc IC50 [3] | cellular copper (Cu) content (ICP-MS) (786-0 CCRCC cells [4]) | cellular iron (Fe) content (ICP-MS) (786-0 CCRCC cells [4]) | cellular zinc (Zn) content (ICP-MS) (786-0 CCRCC cells [4]) | further results |
| --- | --- | --- | --- | --- | --- | --- | --- | --- | --- |
| COc1cccc2sc(Nc3nnc(-c4ccc(F)cc4)o3)nc12 [KD001, 5-(4-fluorophenyl)-N-(4-methoxybenzo[d]thiazol-2-yl)-1,3,4-oxadiazol-2-amine] | decreases | increases | 3.21 µM |  |  |  |  |  | Tm of ISCA2 in treated wells, replicate readings (recombinant ISCA2; 200 μM compound): 55.10 °C and 55.92 °C and 55.96 °C; change in melting temperature of ISCA2 (dTm) (recombinant ISCA2; 200 μM compound, p-value 0.005): 2.41±0.44 °C; ΔTm at 200 µM (recombinant ISCA2; 200 μM compound, p-value 0.005, read-out: change in melting temperature of ISCA2 (dTm)): 2.41 ± 0.44 °C; Tm of ISCA2 in treated wells (average) (recombinant ISCA2; 200 μM compound, control wells 53.21±0.36): 55.63±0.26 °C |
| Fc1ccc(-c2nnc(Nc3nc4ncccc4o3)o2)cc1 [KD007, N-(5-(4-Fluorophenyl)-1,3,4-oxadiazol-2-yl)oxazolo[4,5-b]pyridin-2-amine] |  |  | 3.16 µM | 3.2 | 4.75 and 2.6 |  |  |  |  |
| COc1ccc(-c2nnc(Nc3nc4c(OC)nccc4[nH]3)o2)cc1 [KD021, N-(4-methoxy-1H-imidazo[4,5-c]75yridine-2-yl)-5-(4-methoxyphenyl)-1,3,4-oxadiazol-2-amine] |  |  |  | 2.75 |  | increases | increases | increases | IC50 (786-0 CCRCC cells [2]; with 100 μM deferoxamine (DFO), read-out: cell viability IC50 in the presence of DFO): 83.6 µM; IC50 (786-0 CCRCC cells [2]; without DFO, read-out: cell viability IC50): 11.4 µM; IC50 [1]: 1.4 µM |
| COc1ccc(-c2nnc(Nc3nc4c(OC)nccc4[nH]3)o2)cc1OC [KD025, N-(4-Methoxy-1H-imidazo[4,5-c]pyridin-2-yl)-5-(3,4-dimethoxyphenyl)-1,3,4-oxadiazol-2-amine] |  |  | 1.13 µM |  |  |  |  |  | Tm of ISCA2 in treated wells, replicate readings (recombinant ISCA2; 100 μM compound): 56.33 °C and 56.3 °C and 56.27 °C; change in melting temperature of ISCA2 (dTm) (recombinant ISCA2; 100 μM compound, p-value 0.003): 1.21±0.20 °C; ΔTm at 100 µM (recombinant ISCA2; 100 μM compound, p-value 0.003, read-out: change in melting temperature of ISCA2 (dTm)): 1.21 ± 0.2 °C; Tm of ISCA2 in treated wells (average) (recombinant ISCA2; 100 μM compound, control wells 55.02±0.2): 56.3±0.02 °C |
| COc1nccc2[nH]c(Nc3nnc(-c4ccc(F)cc4)o3)nc12 [KD002, 5-(4-Fluorophenyl)-N-(4-methoxy-1H-imidazo[4,5-c]pyridin-2-yl)-1,3,4-oxadiazol-2-amine] | decreases | increases | 1.56 µM | 39.05 | 7.9 | increases | increases | increases |  |
